Results taken from EP3057950B1, “PHENYL LINKED QUINOLINYL MODULATORS OF ROR-GAMMA-T” (Janssen Pharmaceutica NV, priority 2013, dated 2015).
Structures can show the parent of a compound that is named as a salt.

Tests used:
[1] = biological target: T1, wild type human RORγt ligand binding domain (RORγt LBD) (Homo sapiens, UniProt P51449); assay: RORγt ThermoFluor® Assay (thermal shift, binding affinity); conditions: pH 7.0, estimated from concentration response curves
T1 construct: His-tag (N); TurboTEV protease cleavage site (ENLYFQG) (N); made in house; host or cells: E. coli (pHIS1, modified pET expression vector)
T1 sequence (P51449 269-508 limits assumed): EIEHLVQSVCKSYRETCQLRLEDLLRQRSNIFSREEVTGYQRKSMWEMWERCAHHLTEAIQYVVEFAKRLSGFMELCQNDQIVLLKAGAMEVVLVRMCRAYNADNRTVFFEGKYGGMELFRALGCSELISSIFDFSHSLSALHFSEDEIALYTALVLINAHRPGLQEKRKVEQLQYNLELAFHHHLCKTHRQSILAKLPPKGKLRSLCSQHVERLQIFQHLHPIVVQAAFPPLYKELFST
Experimental: This approach is applicable to a wide variety of systems, and rigorous in theoretical interpretation through quantitation of equilibrium binding constants (KD).
The shift in the melting point described as a ΔTm is proportional to the concentration and affinity of the ligand.
Protein and compound solutions are dispensed into black 384-well polypropylene PCR microplates (Abgene) and overlayed with silicone oil (1 µL, Fluka, type DC 200) to prevent evaporation.
Bar-coded assay plates are robotically loaded onto a thermostatically controlled PCR-type thermal block and then heated at a typical ramp-rate of 1 °C/min for all experiments. Fluorescence was measured by continuous illumination with UV light (Hamamatsu LC6) supplied via fiber optic and filtered through a band-pass filter (380-400 nm; >6 OD cutoff). Fluorescence emission of the entire 384-well plate was detected by measuring light intensity using a CCD camera (Sensys, Roper Scientific) filtered to detect 500 ± 25 nm, resulting in simultaneous and independent readings of all 384 wells. Images were collected at each temperature, and the sum of the pixel intensity in a given area of the assay plate was recorded versus temperature. Reference wells contained RORγt without compounds, and the assay conditions were as follows: • 0.065 mg/mL RORγt • 60 µM 1,8-ANS • 100 mM Hepes, pH 7.0 • 10 mM NaCl • 2.5 mM GSH • 0.002% Tween-20
Project compounds were arranged in a pre-dosed mother plate (Greiner Bio-one) wherein compounds are serially diluted in 100% DMSO by 1:2 from a high concentration of 10 mM over 12 columns within a series (column 12 is a reference well containing DMSO, no compound). The compounds were robotically dispensed directly into assay plates (1x = 46 nL) using a Hummingbird capillary liquid handling instrument (Digilab). Following compound dispense, protein and dye in buffer was added to achieve the final assay volume of 3 µL, followed by 1 µL of silicone oil.

[2] = biological target: T2, wild type human RORγt LBD (Homo sapiens, UniProt P51449); assay: RORγt Reporter Assay (GAL4-RORγt LBD luciferase in HEK293T cells); type: cell-based; conditions: HEK293T cells; for IC50: compounds for 24 hours, read-out: RORγt reporter Assay, IC50; for inhibition at 6 µM: HEK-293T, read-out: RORγt reporter Assay, % inhibition @ 6 µM, @ 6 µM
T2 construct: expressed in transfected cells; host or cells: HEK293T
T2 sequence (P51449 269-508 limits assumed): T1 sequence (P51449 269-508 limits assumed)
Excerpt: A reporter assay was used to test functional activity of RORγt modulatory compounds on transcriptional activation driven by the RORγt LBD. Cells used in the assay were co-transfected with two constructs. The first construct, pBIND-RORγt LBD, contained the wild type human RORγt LBD fused to the DNA binding domain of the GAL4 protein. The second construct, pGL4.31 (Promega Cat no. C935A), contained multiple GAL4 responsive DNA elements upstream of firefly luciferase. […] The mutant construct was called pBIND-RORγt-AF2.
The pBIND vector contains the GAL4 DNA Binding Domain (GAL4 DBD) and the renilla luciferase gene under control of the SV40 promoter. Renilla luciferase expression serves as a control for transfection efficiency and cell viability.
The reporter assay was performed by transiently transfecting HEK293T cells with 5 µg of pBIND-RORγt LBD or pBIND-RORγt LBD-AF2 and 5 µg pGL4.31 (Promega Cat no. C935A) using Fugene 6 (Invitrogen Cat no. E2691) at a 1:6 ratio of DNA: Fugene 6 in a T-75 flask in which cells were at least 80% confluent. Twenty four hours after bulk transfection, cells were plated into 96-well plates at 50,000 cells/well in phenol-red free DMEM containing 5% Lipid Reduced FCS and Pen/Strep. Six hours after plating, cells were treated with compounds for 24 hours. Media was removed and cells were lysed with 50 µL 1x Glo Lysis Buffer (Promega). Dual Glo Luciferase Reagent (50 µL/well) was then added and firefly luciferase luminescence was read on an Envision after a ten minute incubation. Finally, Stop and Glo reagent (50 µL/well) was added and renilla luciferase luminescence was read on an Envision instrument after a ten minute incubation. To calculate the effect of compounds on RORγt activity, the ratio of firefly to renilla luciferase was determined and plotted against compound concentration. Agonist compounds increase RORγt-driven luciferase expression, and antagonist or inverse agonist compounds decrease luciferase expression.

SMILES	Kd [1]	IC50 [2]	inhibition at 6 µM [2]	RORγt reporter Assay, % inhibition @ 6 µM ([2]; @ 6 µM)
Cc1cc(C(O)(c2ccc(C(F)(F)F)nc2)c2cncn2C)cc2c(C#N)c(-c3ccccc3)c(C#N)nc12 (single isomer, unassigned) [Example 25b, 6-(Hydroxy(1-methyl-1H-imidazol-5-yl)(6-(trifluoromethyl)pyridin-3-yl)methyl)-8-methyl-3-phenylquinoline-2,4-dicarbonitrile]	3500 nM	~2000 nM	87%	–
COc1c(-c2ccccc2)c(C(F)(F)F)nc2ccc(C(O)(c3ccc(Cl)cc3)c3cncn3C)cc12 (stereo not drawn) [Example 33a, (4-Chlorophenyl)(4-methoxy-3-phenyl-2-(trifluoromethyl)quinolin-6-yl)(1-methyl-1H-imidazol-5-yl)methanol•TFA]	160 nM	650 nM	98%	–
Cn1cncc1C(O)(c1ccc(C(F)(F)F)nc1)c1ccc2nc(OCC(F)(F)F)c(-c3ccccc3)c(Cl)c2c1 (stereo not drawn) [Example 54, [4-Chloro-3-phenyl-2-(2,2,2-trifluoroethoxy)quinolin-6-yl](1-methyl-1H-imidazol-5-yl)[6-(trifluoromethyl)pyridin-3-yl]methanol]	380 nM	440 nM	102%	–
OC(c1cccnc1)(c1ccc2nc(Cl)c(-c3ccccc3)c(Cl)c2c1)C1CCNCC1 (stereo not drawn) [Example 91, (2,4-Dichloro-3-phenylquinolin-6-yl)(piperidin-4-yl)(pyridin-3-yl)methanol•TFA]	21000 nM	> 6000 nM	0%	–
Cc1ncc(C(O)(c2ccc3nc(Cl)c(-c4ccccc4)c(Cl)c3c2)c2cnnn2C)n1C (stereo not drawn) [Example 39, (2,4-Dichloro-3-phenylquinolin-6-yl)(1,2-dhnethyl-1H-imidazol-5-yl)(1-methyl-1H-1,2,3-triazol-5-yl)methanol]	5.2 nM	34 nM	103%	–
COc1nc2ccc(C(O)(c3ccc(C(F)(F)F)nc3)c3cncn3C)cc2c(Cl)c1-c1cncc(S(C)(=O)=O)c1 (stereo not drawn) [Example 13, {4-Chloro-2-methoxy-3-[5-(methylsuflonyl)pyridin-3-yl]quinolin-6-yl)(1-methyl-1H-imidazol-5-yl)[6-(trifluoromethyl)pyridin-3-yl]methanol•TFA]	2000 nM	> 6000 nM	-52%	–
Cn1cncc1C(c1ccc(Cl)cc1)c1ccc2nc(C#N)c(-c3ccccc3)c(Cl)c2c1 (stereo not drawn) [Example 72, 4-Chloro-6-((4-chlorophenyl)(1-methyl-1H-imidazol-5-yl)methyl)-3-phenylquinoline-2-carbonitrile•TFA]	890 nM	630 nM	100%	–
COc1c(-c2ccccc2)c(C(F)(F)F)nc2ccc(C(O)(c3ccc(Cl)cc3)c3cncn3C)cc12 (single isomer, unassigned) [Example 33b, (4-Chlorophenyl)(4-methoxy-3-phenyl-2-(trifluoromethyl)quinolin-6-yl)(1-methyl-1H-imidazol-5-yl)methanol]	13000 nM	~4000 nM	–	64%
COc1c(-c2ccccc2)c(Cl)nc2ccc(C(O)(c3cnnn3C)c3cnc(C)n3C)cc12 (stereo not drawn) [Example 40a, (2-Chloro-4-metboxy-3-phenylquinolin-6-yl)(1,2-dimethyl-1H-imidazol-5-yl)(1-methyl-1H-1,2,3-triazol-5-yl)methanol•TFA]	1.5 nM	23 nM	104%	–
CN(C)c1c(-c2ccccc2)c(Cl)nc2ccc(C(O)(c3ccccn3)c3cncn3C)cc12 (stereo not drawn) [Example 85, (2-Chloro-4-(dimethylamino)-3-phenylquinolin-6-yl)(1-methyl-1H-imidazol-5-yl)(pyridin-2-yl)methanol•TFA]	20000 nM	3500 nM	81%	–
COCCN(C)c1nc2ccc(C(O)(c3ccc(Cl)cc3)c3cncn3C)cc2c(Cl)c1-c1ccccc1 (stereo not drawn) [Example 50, {4-Chloro-2-[(2-methoxyethyl)(methyl)amino]-3-phenylquinolin-6-yl}(4-chlorophenyl)(1-methyl-1H-imidazol-5-yl)methanol]	90 nM	31 nM	99%	–
